Patent US11390617B2, “Methods of treating non-Hodgkin lymphoma using 2-(2,6-dioxopiperidin-3-yl)-4-((2-fluoro-4-((3-morpholinoazetidin-1-yl)methyl)benzyl)amino)isoindoline-1,3-dione” (Celgene Corporation, priority 2019, dated 2022)

Assays:
SU-DHL-8 = test: NHL cell line viability/apoptosis 384-well flow cytometry assay; assay type: cell-based; conditions: SU-DHL-8 (DLBCL), 120 hours
Method: (§1) The following exemplary anti-proliferative assay uses exemplary non-Hodgkin lymphoma (NIL) cell lines (including diffuse large B-cell lymphoma (DLBCL), follicular lymphoma (FL), and mantle cell lymphoma (MCL)) (Table 5). The in vitro growth inhibitory activity of Compound 1 described herein was evaluated using a 384-well flow cytometry assay.
(§2) The cell lines in Table 5 were plated in 384-well flat bottom plates and assessed with increasing concentrations of compound ranging from 0.00015 to 10 μM or dimethyl sulfoxide (DMSO) control. The final concentration of DMSO was 0.1% (v/v). Following the addition of Compound 1 or DMSO and incubation for 120 hours, cell number and cell death were analyzed by flow cytometry (Attune®, Thermo Fisher) using Annexin V and the live-cell impermeant DNA dye, DRAQ7. Phosphatidylserine translocates from the inner layer to the outer layer of the cell membrane early in apoptosis and Annexin V binds to the exposed phosphatidylserine found on the surface of an apoptotic cell. The vital dye DRAQ7 is excluded by intact live cells and only stains cells that have died as a result of apoptosis or necrosis.
(§3) Flow cytometry data analysis was then performed using the Flow Jo_v10 software to determine the number of viable cells (Annexin V and DRAQ7 double negative staining cells) and percentage of apoptotic cells (Annexin V positive cells) for each condition. The live cell count for every concentration was normalized to the DMSO control (considered as 100%) to calculate the percentage of viable cells remaining after treatment and graphed using GraphPad Prism 7.03. The IC50 (50% inhibitory concentration) and Emax (maximum efficacy achieved) values were then calculated by performing nonlinear regression curve fitting using log(inhibitor) vs. normalized response—variable slope analysis on GraphPad Prism 7.03. Area under the curve (AUC) was calculated by performing area under curve analysis on GraphPad Prism 7.03. Similarly, for apoptosis analysis, the percentage of apoptosis combining both “early” (Annexin V positive and DRAQ7 negative) and “late” apoptosis (Annexin V and DRAQ7 positive) cell gates relative to DMSO was graphed using GraphPad Prism 7.03. The AUC, EC50 (concentration of Compound 1 that produces half-maximal apoptosis response) and Ymax (maximal percentage of apoptosis achieved) values from apoptosis curves were calculated by performing area under curve analysis and nonlinear regression curve fitting using log(agonist) vs. normalized response—Variable slope analysis on GraphPad Prism 7.03.
(§4) In Table 6, dose-response proliferation curves for the panel of NHL cell lines and non-linear curve-fit regression were used to determine IC50, AUC, and Emax for % viable cells (Emax for viability varies between 100 at low doses and 0 at high doses, which corresponds to inhibition of all viable cells), and dose-response apoptosis curves were used to determine the EC50, AUC, and Ymax for % apoptosis (Ymax for apoptosis varies from 0 at low doses and 100 at higher doses which corresponds to death of all cells). Tumor cells were exposed to serial dilutions (0.00015 to 10 μM) of Compound 1 or dimethyl sulfoxide (DMSO) control for 5 days. Viability and apoptosis for all cell lines was determined by Annexin V/[…] flow cytometry.

Mino = test: as above; assay type: cell-based; conditions: Mino (MCL), 120 hours
Method: as §1, §2, §3, §4

[1] = tested on: SUDHL-6 DLBCL xenograft tumors; test: SUDHL-6 (DLBCL) xenograft model; assay type: in vivo, female SCID mice; conditions: Compound 1 10 mg/kg oral, 5 days on 2 days off for 3 weeks, single agent
Method: Female 6- to 8-weeks-old CB17 SCID mice were obtained from Charles River Laboratories. Mice were housed in a barrier facility in micro-isolator cages at 10 animals per cage. Mice were fed with Harlan-Teklad LM-485 Mouse/Rat Sterilizable Diet and autoclaved water ad libitum and maintained on a 12 hours light-dark cycle. Animals were acclimatized to the animal housing facility for a period of 7 days before the beginning of the experiment. All animal studies were performed under protocols approved by Institutional Animal Care and Use Committees.
Suspensions of Compound 1 were pared in aqueous 0.5% Methyl Cellulose, 0.25% Tween 80 and 50 mM Citrate pH 3. […]
Tumor cells were injected subcutaneously in the flank region above the right hind legs of female CB17 SCID mice. […] Tumor volumes were determined before the initiation of treatment and were considered as the starting volumes. Tumors were measured twice a week for the duration of the study. The long and short axes of each tumor were measured using a digital caliper in millimeters. The tumor volumes were calculated using the formula: width^2×length/2. […]
Xenograft data are expressed as mean±SEM. […]
Xenograft study was conducted with female SCID mice bearing SUDHL-6 DLBCL xenograft tumors. […] Tumors were measured twice a week using calipers and tumor volumes were calculated using the formula of W^2×L/2. […]

[2] = Homo sapiens, read-out: IC50 (% Viable Cells)

Which results are given for `O=C1CC[C@H](N2C(=O)c3cccc(NCc4ccc(CN5CC(N6CCOCC6)C5)cc4F)c3C2=O)C(=O)N1` [Compound 1, (S)-2-(2,6-dioxopiperidin-3-yl)-4-((2-fluoro-4-((3-morpholinoazetidin-1-yl)methyl)benzyl)amino)isoindoline-1,3-dione]?
EC50 (SU-DHL-8; Homo sapiens): 602 nM; IC50 (SU-DHL-8; [2]): 486 nM; AUC (% Viable Cells) (SU-DHL-8): 119.5; AUC (Apoptosis) (SU-DHL-8): 363.2; Emax (% Viable Cells) (SU-DHL-8): 2.081%; Ymax (Apoptosis) (SU-DHL-8): 85.44%; EC50 (Mino; Homo sapiens): 2.05 nM; IC50 (Mino; [2]): 5.78 nM; AUC (% Viable Cells) (Mino): 62.67; AUC (Apoptosis) (Mino): 968.2; Emax (% Viable Cells) (Mino): 5.638%; Ymax (Apoptosis) (Mino): 97.04%; tumor volume reduction [1]: 68%
